Measurements: the NIST ThermoML archive (doi:10.1021/acs.jced.7b00769)
Numbers after ± are expanded uncertainties.

Assay: xn = mol fraction of the nth substance listed
Conditions: Gas, isochoric method

Question: What does the source list for `FC(F)(F)/C=C/Cl` [(E)-1-chloro-3,3,3-trifluoroprop-1-ene] + CC(C)C?
Answer: specific volume (303.15 K, 113.3 kPa, x2 = 0.125): 0.174 ± 0.0015 m3/kg; specific volume (303.15 K, 186.5 kPa, x2 = 0.564): 0.1429 ± 0.0009 m3/kg; specific volume (308.15 K, 115.4 kPa, x2 = 0.125): 0.1741 ± 0.0014 m3/kg; specific volume (308.15 K, 190.1 kPa, x2 = 0.564): 0.1429 ± 0.0027 m3/kg; specific volume (313.15 K, 117.5 kPa, x2 = 0.125): 0.1741 ± 0.0028 m3/kg; specific volume (313.15 K, 193.7 kPa, x2 = 0.564): 0.143 ± 0.0027 m3/kg; specific volume (313.15 K, 197.4 kPa, x2 = 0.453): 0.1261 ± 0.0027 m3/kg; specific volume (318.15 K, 119.6 kPa, x2 = 0.125): 0.1742 ± 0.0012 m3/kg; specific volume (318.15 K, 197.5 kPa, x2 = 0.564): 0.143 ± 0.0027 m3/kg; specific volume (318.15 K, 200.9 kPa, x2 = 0.453): 0.1262 ± 0.0027 m3/kg; specific volume (318.15 K, 340.9 kPa, x2 = 0.746): 0.0926 ± 0.0013 m3/kg; specific volume (323.15 K, 121.8 kPa, x2 = 0.125): 0.1742 ± 0.0032 m3/kg; specific volume (323.15 K, 200.9 kPa, x2 = 0.564): 0.143 ± 0.0027 m3/kg; specific volume (323.15 K, 204.5 kPa, x2 = 0.453): 0.1262 ± 0.0027 m3/kg; specific volume (323.15 K, 347.6 kPa, x2 = 0.746): 0.0926 ± 0.0012 m3/kg; specific volume (328.15 K, 123.8 kPa, x2 = 0.125): 0.1742 ± 0.0025 m3/kg; specific volume (328.15 K, 204.3 kPa, x2 = 0.564): 0.143 ± 0.0027 m3/kg; specific volume (328.15 K, 208 kPa, x2 = 0.453): 0.1262 ± 0.0027 m3/kg; specific volume (328.15 K, 353.9 kPa, x2 = 0.746): 0.0926 ± 0.0012 m3/kg; specific volume (333.15 K, 125.8 kPa, x2 = 0.125): 0.1743 ± 0.0021 m3/kg; specific volume (333.15 K, 207.8 kPa, x2 = 0.564): 0.1431 ± 0.0027 m3/kg; specific volume (333.15 K, 211.4 kPa, x2 = 0.453): 0.1262 ± 0.0027 m3/kg; specific volume (333.15 K, 360.6 kPa, x2 = 0.746): 0.0926 ± 0.0007 m3/kg; specific volume (333.15 K, 648.1 kPa, x2 = 0.865): 0.0535 ± 0.0016 m3/kg; specific volume (338.15 K, 128.2 kPa, x2 = 0.125): 0.1743 ± 0.002 m3/kg; specific volume (338.15 K, 211.1 kPa, x2 = 0.564): 0.1431 ± 0.0027 m3/kg; specific volume (338.15 K, 214.9 kPa, x2 = 0.453): 0.1263 ± 0.0027 m3/kg; specific volume (338.15 K, 366.9 kPa, x2 = 0.746): 0.0926 ± 0.0007 m3/kg; specific volume (338.15 K, 576.1 kPa, x2 = 0.644): 0.0499 ± 0.0016 m3/kg; specific volume (338.15 K, 661.4 kPa, x2 = 0.865): 0.0535 ± 0.0016 m3/kg; specific volume (343.15 K, 130.2 kPa, x2 = 0.125): 0.1744 ± 0.0025 m3/kg; specific volume (343.15 K, 214.6 kPa, x2 = 0.564): 0.1431 ± 0.0027 m3/kg; specific volume (343.15 K, 218.5 kPa, x2 = 0.453): 0.1263 ± 0.0027 m3/kg; specific volume (343.15 K, 373.2 kPa, x2 = 0.746): 0.0927 ± 0.0007 m3/kg; specific volume (343.15 K, 587.5 kPa, x2 = 0.644): 0.0499 ± 0.0016 m3/kg; specific volume (343.15 K, 674.5 kPa, x2 = 0.865): 0.0536 ± 0.0016 m3/kg; specific volume (348.15 K, 132.2 kPa, x2 = 0.125): 0.1744 ± 0.0032 m3/kg; specific volume (348.15 K, 218 kPa, x2 = 0.564): 0.1432 ± 0.0027 m3/kg; specific volume (348.15 K, 222 kPa, x2 = 0.453): 0.1263 ± 0.0027 m3/kg; specific volume (348.15 K, 379.5 kPa, x2 = 0.746): 0.0927 ± 0.0007 m3/kg; specific volume (348.15 K, 598.7 kPa, x2 = 0.644): 0.0499 ± 0.0016 m3/kg; specific volume (348.15 K, 687.5 kPa, x2 = 0.865): 0.0536 ± 0.0016 m3/kg; specific volume (353.15 K, 134.4 kPa, x2 = 0.125): 0.1744 ± 0.0015 m3/kg; specific volume (353.15 K, 221.4 kPa, x2 = 0.564): 0.1432 ± 0.0027 m3/kg; specific volume (353.15 K, 225.5 kPa, x2 = 0.453): 0.1264 ± 0.0027 m3/kg; specific volume (353.15 K, 385.8 kPa, x2 = 0.746): 0.0927 ± 0.0007 m3/kg; specific volume (353.15 K, 609.8 kPa, x2 = 0.644): 0.0499 ± 0.0016 m3/kg; specific volume (353.15 K, 700.5 kPa, x2 = 0.865): 0.0536 ± 0.0016 m3/kg; specific volume (358.15 K, 136.3 kPa, x2 = 0.125): 0.1745 ± 0.0023 m3/kg; specific volume (358.15 K, 224.6 kPa, x2 = 0.564): 0.1432 ± 0.0027 m3/kg; specific volume (358.15 K, 229 kPa, x2 = 0.453): 0.1264 ± 0.0027 m3/kg; specific volume (358.15 K, 391.8 kPa, x2 = 0.746): 0.0927 ± 0.0007 m3/kg; specific volume (358.15 K, 620.8 kPa, x2 = 0.644): 0.0499 ± 0.0016 m3/kg; specific volume (358.15 K, 713.3 kPa, x2 = 0.865): 0.0536 ± 0.0016 m3/kg; specific volume (363.15 K, 138.3 kPa, x2 = 0.125): 0.1745 ± 0.0064 m3/kg; specific volume (363.15 K, 228.1 kPa, x2 = 0.564): 0.1433 ± 0.0027 m3/kg; specific volume (363.15 K, 232.1 kPa, x2 = 0.453): 0.1264 ± 0.0027 m3/kg; specific volume (363.15 K, 398.1 kPa, x2 = 0.746): 0.0927 ± 0.0007 m3/kg; specific volume (363.15 K, 631.1 kPa, x2 = 0.644): 0.05 ± 0.0016 m3/kg; specific volume (363.15 K, 726.1 kPa, x2 = 0.865): 0.0536 ± 0.0016 m3/kg; specific volume (368.15 K, 140.4 kPa, x2 = 0.125): 0.1745 ± 0.0015 m3/kg; specific volume (368.15 K, 231.5 kPa, x2 = 0.564): 0.1433 ± 0.0027 m3/kg; specific volume (368.15 K, 235.6 kPa, x2 = 0.453): 0.1264 ± 0.0027 m3/kg; specific volume (368.15 K, 404.2 kPa, x2 = 0.746): 0.0928 ± 0.0007 m3/kg; specific volume (368.15 K, 642.6 kPa, x2 = 0.644): 0.05 ± 0.0015 m3/kg; specific volume (368.15 K, 738.7 kPa, x2 = 0.865): 0.0536 ± 0.0016 m3/kg; specific volume (373.15 K, 142.3 kPa, x2 = 0.125): 0.1746 ± 0.0015 m3/kg; specific volume (373.15 K, 234.8 kPa, x2 = 0.564): 0.1433 ± 0.0027 m3/kg; specific volume (373.15 K, 239.1 kPa, x2 = 0.453): 0.1265 ± 0.0027 m3/kg; specific volume (373.15 K, 410.7 kPa, x2 = 0.746): 0.0928 ± 0.0007 m3/kg; specific volume (373.15 K, 653.2 kPa, x2 = 0.644): 0.05 ± 0.0015 m3/kg; specific volume (373.15 K, 751.4 kPa, x2 = 0.865): 0.0536 ± 0.0016 m3/kg; specific volume (378.15 K, 144.4 kPa, x2 = 0.125): 0.1746 ± 0.0068 m3/kg; specific volume (378.15 K, 238.2 kPa, x2 = 0.564): 0.1434 ± 0.0027 m3/kg; specific volume (378.15 K, 242.6 kPa, x2 = 0.453): 0.1265 ± 0.0027 m3/kg; specific volume (378.15 K, 416.9 kPa, x2 = 0.746): 0.0928 ± 0.0007 m3/kg; specific volume (378.15 K, 664.1 kPa, x2 = 0.644): 0.05 ± 0.0015 m3/kg; specific volume (378.15 K, 763.9 kPa, x2 = 0.865): 0.0536 ± 0.0016 m3/kg; specific volume (383.15 K, 146.5 kPa, x2 = 0.125): 0.1747 ± 0.016 m3/kg; specific volume (383.15 K, 241.7 kPa, x2 = 0.564): 0.1434 ± 0.0027 m3/kg; specific volume (383.15 K, 246.4 kPa, x2 = 0.453): 0.1265 ± 0.0027 m3/kg; specific volume (383.15 K, 423.2 kPa, x2 = 0.746): 0.0928 ± 0.0007 m3/kg; specific volume (383.15 K, 675 kPa, x2 = 0.644): 0.05 ± 0.0015 m3/kg; specific volume (383.15 K, 776.5 kPa, x2 = 0.865): 0.0536 ± 0.0016 m3/kg
